Experimental data published in ChEMBL document CHEMBL6071156 (Eur J Med Chem, 2024).
Calls of active or inactive are those of the source. No cut-off for these calls is given here.

Tests used:
[1] = Metabolic stability in human liver S9 fraction assessed as half life by HPLC-MS/MS analysis; type: ADME, subcellular
[2] = Toxicity in C57BL/6 mouse model assessed as effect on DBILI level at 300 mg/kg/day, ip measured after 6 days post infection (reference value: 0.25 to 0.33); type: organism-based; conditions: in vivo, 144 h, time 6 day
[3] = MRT in C57BL/6 mouse plasma at 10 mg/kg, po measured upto 24 hrs post dosing by LC-MS/MS; type: ADME, organism-based; conditions: in vivo
[4] = MRT in C57BL/6 mouse plasma at 2.5 mg/kg, iv measured upto 24 hrs post dosing by LC-MS/MS; type: ADME, organism-based; conditions: in vivo
Cytochrome P450 2C9 = Cytochrome P450 2C9 (Homo sapiens, UniProt P11712); experiment: Inhibition of CYP2C9 (unknown origin); type: ADME
Chikungunya virus = type: functional, organism-based; conditions: dose 300.0 mg/kg/day, time 5-6 day
[5] = Half life in C57BL/6 mouse plasma at 2.5 mg/kg, iv measured upto 24 hrs post dosing by LC-MS/MS; type: ADME, organism-based; conditions: in vivo
[6] = target: Polyprotein P1234 (Chikungunya virus (strain S27-African prototype) (CHIKV)) (UniProt Q8JUX6); conditions: dose 0.27-600 µM, time 2000-8000 sec
[7] = Volume in the terminal state in C57BL/6 mouse plasma at 2.5 mg/kg, iv measured upto 24 hrs post dosing by LC-MS/MS; type: ADME, organism-based; conditions: in vivo

Chain of Cytochrome P450 2C9 (P11712 whole entry): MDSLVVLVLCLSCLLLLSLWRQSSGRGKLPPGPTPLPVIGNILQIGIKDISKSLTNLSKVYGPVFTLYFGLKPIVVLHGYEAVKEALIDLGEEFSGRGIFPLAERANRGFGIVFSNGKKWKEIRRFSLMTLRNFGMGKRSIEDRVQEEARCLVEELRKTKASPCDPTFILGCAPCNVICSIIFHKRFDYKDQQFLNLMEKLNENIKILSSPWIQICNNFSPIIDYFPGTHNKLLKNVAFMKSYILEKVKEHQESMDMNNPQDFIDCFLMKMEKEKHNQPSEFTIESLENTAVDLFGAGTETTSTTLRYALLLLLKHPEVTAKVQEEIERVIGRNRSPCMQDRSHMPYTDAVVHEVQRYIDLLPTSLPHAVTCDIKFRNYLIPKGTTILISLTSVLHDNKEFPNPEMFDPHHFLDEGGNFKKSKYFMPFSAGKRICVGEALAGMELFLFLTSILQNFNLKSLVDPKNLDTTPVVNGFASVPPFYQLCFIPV
Chain of Polyprotein P1234 (Chikungunya virus (strain S27-African prototype) (CHIKV)) (Q8JUX6 whole entry): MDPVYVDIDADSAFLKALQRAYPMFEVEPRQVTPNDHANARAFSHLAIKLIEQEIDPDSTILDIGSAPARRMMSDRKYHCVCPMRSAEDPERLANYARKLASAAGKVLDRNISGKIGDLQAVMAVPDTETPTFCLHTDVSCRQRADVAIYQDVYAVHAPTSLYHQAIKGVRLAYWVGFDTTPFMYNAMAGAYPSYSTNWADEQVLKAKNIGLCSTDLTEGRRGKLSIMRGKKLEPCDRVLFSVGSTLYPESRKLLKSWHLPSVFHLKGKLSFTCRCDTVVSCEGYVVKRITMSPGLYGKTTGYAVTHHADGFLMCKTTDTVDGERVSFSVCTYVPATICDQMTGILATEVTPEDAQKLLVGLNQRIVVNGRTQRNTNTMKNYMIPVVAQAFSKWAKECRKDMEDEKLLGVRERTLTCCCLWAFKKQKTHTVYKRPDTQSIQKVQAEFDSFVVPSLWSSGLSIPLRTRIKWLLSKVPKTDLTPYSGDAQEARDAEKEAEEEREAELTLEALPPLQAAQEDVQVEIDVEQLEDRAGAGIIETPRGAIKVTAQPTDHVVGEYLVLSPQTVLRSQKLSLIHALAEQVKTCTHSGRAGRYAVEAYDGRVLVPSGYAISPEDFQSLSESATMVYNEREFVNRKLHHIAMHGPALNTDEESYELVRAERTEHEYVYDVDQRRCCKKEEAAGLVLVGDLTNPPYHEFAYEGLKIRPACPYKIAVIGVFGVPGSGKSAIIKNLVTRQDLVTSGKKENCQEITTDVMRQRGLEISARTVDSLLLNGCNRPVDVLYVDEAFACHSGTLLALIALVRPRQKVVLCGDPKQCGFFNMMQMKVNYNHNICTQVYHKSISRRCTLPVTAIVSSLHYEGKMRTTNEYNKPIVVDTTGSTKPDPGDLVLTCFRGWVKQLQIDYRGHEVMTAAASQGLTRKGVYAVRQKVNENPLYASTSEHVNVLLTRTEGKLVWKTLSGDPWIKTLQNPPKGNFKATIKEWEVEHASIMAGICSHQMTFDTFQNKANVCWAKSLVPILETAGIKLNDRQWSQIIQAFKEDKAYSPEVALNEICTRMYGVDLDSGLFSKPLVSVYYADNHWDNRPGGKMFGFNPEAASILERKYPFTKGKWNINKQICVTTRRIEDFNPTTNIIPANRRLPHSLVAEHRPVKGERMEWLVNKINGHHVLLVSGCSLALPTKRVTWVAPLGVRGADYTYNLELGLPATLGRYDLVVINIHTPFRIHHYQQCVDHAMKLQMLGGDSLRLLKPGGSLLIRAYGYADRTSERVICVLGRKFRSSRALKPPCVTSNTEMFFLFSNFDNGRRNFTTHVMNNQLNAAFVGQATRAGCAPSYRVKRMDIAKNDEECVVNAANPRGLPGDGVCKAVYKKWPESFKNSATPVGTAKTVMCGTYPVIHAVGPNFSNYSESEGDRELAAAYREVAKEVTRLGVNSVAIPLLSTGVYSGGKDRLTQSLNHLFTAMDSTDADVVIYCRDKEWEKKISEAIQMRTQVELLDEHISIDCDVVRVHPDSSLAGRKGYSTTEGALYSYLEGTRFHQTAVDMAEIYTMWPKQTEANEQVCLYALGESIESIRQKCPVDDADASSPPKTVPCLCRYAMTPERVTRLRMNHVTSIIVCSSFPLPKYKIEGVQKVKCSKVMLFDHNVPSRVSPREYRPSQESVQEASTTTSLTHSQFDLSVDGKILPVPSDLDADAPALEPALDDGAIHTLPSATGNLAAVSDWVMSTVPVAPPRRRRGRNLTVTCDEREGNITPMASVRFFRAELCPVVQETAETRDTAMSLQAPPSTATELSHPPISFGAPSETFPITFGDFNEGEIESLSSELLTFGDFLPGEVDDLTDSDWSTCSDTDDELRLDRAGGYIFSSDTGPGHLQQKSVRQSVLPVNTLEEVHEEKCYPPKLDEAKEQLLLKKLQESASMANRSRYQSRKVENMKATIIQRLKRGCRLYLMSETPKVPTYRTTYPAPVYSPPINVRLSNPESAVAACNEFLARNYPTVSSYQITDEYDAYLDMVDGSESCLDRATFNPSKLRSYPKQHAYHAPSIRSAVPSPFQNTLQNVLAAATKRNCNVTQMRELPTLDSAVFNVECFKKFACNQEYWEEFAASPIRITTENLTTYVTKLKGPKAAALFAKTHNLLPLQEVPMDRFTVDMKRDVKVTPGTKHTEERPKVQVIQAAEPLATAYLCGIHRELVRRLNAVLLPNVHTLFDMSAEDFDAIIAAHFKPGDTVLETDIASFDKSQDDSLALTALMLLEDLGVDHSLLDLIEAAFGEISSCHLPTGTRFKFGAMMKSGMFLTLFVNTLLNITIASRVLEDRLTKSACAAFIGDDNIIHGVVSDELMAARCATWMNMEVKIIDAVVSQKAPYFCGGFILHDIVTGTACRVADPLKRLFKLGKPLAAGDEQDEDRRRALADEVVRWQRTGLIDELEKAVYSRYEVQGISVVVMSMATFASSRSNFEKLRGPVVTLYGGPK

CC1CCNc2c(C(=O)NC/C=C/S(C)(=O)=O)cccc21 (centres undefined)
t1/2 [1]: 104 min
Activity [2]: 0.14 mg/dL
MRT [3]: 255 min
MRT [4]: 3.6 min
IC50 (Cytochrome P450 2C9): > 100 µM
Activity (Chikungunya virus): Active
t1/2 [5]: 6 min
TDI [6]: Active
Vz [7]: 4.5 L/kg
